Source: ChEMBL document CHEMBL5303304, “EUbOPEN Chemogenomics Library - IncuCyte” (2023)

Experiments:
Format in all cases: toxicity, cell-based
[1] = system: U2OS; assay: Incucyte cell viability with U2OS; settings: human, 10 µM, compound concentration 10 uM
[2] = system: Fibroblast; assay: Incucyte cell viability with human fibroblast; settings: 10 µM, compound concentration 10 uM
[3] = system: HEK-293T; assay: Incucyte cell viability with HEK293T; settings: human, 10 µM, compound concentration 10 uM
Note: unitless GR value; below 1 slowed growth and below 0 cell loss.

## c1ccc(C2CCN(c3cnc4c(N5CCOCC5)nccn34)CC2)cc1
[1]; 6 h, replicate number 1
  Growth Rate: 0.91
[1]; 12 h, replicate number 1
  Growth Rate: 0.92
[1]; 18 h, replicate number 1
  Growth Rate: 0.9
[2]; 0 h, replicate number 1
  Growth Rate: -0.87
[2]; 6 h, replicate number 2
  Growth Rate: 0.96
[2]; 12 h, replicate number 2
  Growth Rate: 0.56
[2]; 18 h, replicate number 2
  Growth Rate: 0.64
[2]; 24 h, replicate number 1
  Growth Rate: 1
[3]; 6 h, replicate number 1
  Growth Rate: 0.74
[3]; 6 h, replicate number 2
  Growth Rate: 0.9
[3]; 12 h, replicate number 1
  Growth Rate: 0.94
[3]; 18 h, replicate number 2
  Growth Rate: 0.99

## Cc1cn([C@H](C)CC#N)c(=O)c2cc(Cn3nc(C(F)F)cc3Cl)nn12
[1]; 6 h, replicate number 1
  Growth Rate: 0.38
[1]; 12 h, replicate number 1
  Growth Rate: 0.34
[1]; 18 h, replicate number 1
  Growth Rate: 0.52
[1]; 24 h, replicate number 1
  Growth Rate: 0.64
[2]; 0 h, replicate number 1
  Growth Rate: -1
[2]; 6 h, replicate number 1
  Growth Rate: 0.89
[2]; 6 h, replicate number 2
  Growth Rate: 0.78
[2]; 12 h, replicate number 2
  Growth Rate: 0.58
[2]; 18 h, replicate number 2
  Growth Rate: 0.99
[2]; 24 h, replicate number 1
  Growth Rate: 0.93
[3]; 6 h, replicate number 1
  Growth Rate: 0.81
[3]; 6 h, replicate number 2
  Growth Rate: 0.66
[3]; 12 h, replicate number 2
  Growth Rate: 0.82
[3]; 18 h, replicate number 2
  Growth Rate: 0.9
[3]; 24 h, replicate number 1
  Growth Rate: 0.97
[3]; 24 h, replicate number 2
  Growth Rate: 0.89

## CN1CCN(C(=O)c2ccc3cc2OCCOCCNc2ccn4ncc-3c4n2)CC1
[1]; 0 h, replicate number 1
  Growth Rate: -0.07
[1]; 18 h, replicate number 1
  Growth Rate: 0.81
[2]; 0 h, replicate number 2
  Growth Rate: 0.92
[2]; 6 h, replicate number 1
  Growth Rate: 0.73
[2]; 6 h, replicate number 2
  Growth Rate: 0.92
[3]; 6 h, replicate number 1
  Growth Rate: 0.93
[3]; 6 h, replicate number 2
  Growth Rate: 0.6
[3]; 12 h, replicate number 2
  Growth Rate: 0.93
[3]; 18 h, replicate number 1
  Growth Rate: 0.93
[3]; 18 h, replicate number 2
  Growth Rate: 0.85
[3]; 24 h, replicate number 1
  Growth Rate: 0.92
[3]; 24 h, replicate number 2
  Growth Rate: 0.89

## Nc1ncc2c(n1)-c1c([nH]c3ccc(C4CC4)cc13)CCCC2
[1]; 0 h, replicate number 1
  Growth Rate: -0.99
[1]; 0 h, replicate number 2
  Growth Rate: 0.47
[1]; 6 h, replicate number 2
  Growth Rate: -0.85
[1]; 12 h, replicate number 1
  Growth Rate: 0.85
[1]; 12 h, replicate number 2
  Growth Rate: 0.64
[1]; 18 h, replicate number 1
  Growth Rate: 0.93
[1]; 18 h, replicate number 2
  Growth Rate: 0.94
[1]; 24 h, replicate number 1
  Growth Rate: 1
[1]; 24 h, replicate number 2
  Growth Rate: 0.88
[2]; 6 h, replicate number 1
  Growth Rate: 0.08
[2]; 6 h, replicate number 2
  Growth Rate: 0.5
[2]; 12 h, replicate number 1
  Growth Rate: 0.76
[2]; 12 h, replicate number 2
  Growth Rate: 0.75
[2]; 18 h, replicate number 2
  Growth Rate: 0.79
[3]; 6 h, replicate number 1
  Growth Rate: 0.37
[3]; 6 h, replicate number 2
  Growth Rate: 0.69
[3]; 12 h, replicate number 1
  Growth Rate: 0.63
[3]; 12 h, replicate number 2
  Growth Rate: 0.69
[3]; 18 h, replicate number 1
  Growth Rate: 0.74
[3]; 18 h, replicate number 2
  Growth Rate: 0.8
[3]; 24 h, replicate number 1
  Growth Rate: 0.71
[3]; 24 h, replicate number 2
  Growth Rate: 0.85

## CCN(CC)C/C=C/C(=O)Nc1cc2c(Nc3ccc(F)c(Cl)c3)ncnc2cc1OCC1CC1
[1]; 0 h, replicate number 1
  Growth Rate: -0.62
[1]; 6 h, replicate number 1
  Growth Rate: 0.31
[1]; 6 h, replicate number 2
  Growth Rate: 0.36
[1]; 12 h, replicate number 1
  Growth Rate: -0.19
[1]; 12 h, replicate number 2
  Growth Rate: 0.08
[1]; 18 h, replicate number 1
  Growth Rate: -0.19
[1]; 18 h, replicate number 2
  Growth Rate: 0.06
[1]; 24 h, replicate number 1
  Growth Rate: -0.24
[1]; 24 h, replicate number 2
  Growth Rate: -0.01
[2]; 0 h, replicate number 2
  Growth Rate: -0.83
[2]; 6 h, replicate number 1
  Growth Rate: 0.22
[2]; 6 h, replicate number 2
  Growth Rate: -0.01
[2]; 12 h, replicate number 1
  Growth Rate: 0
[2]; 12 h, replicate number 2
  Growth Rate: -0.26
[2]; 18 h, replicate number 1
  Growth Rate: -0.12
[2]; 18 h, replicate number 2
  Growth Rate: -0.4
[2]; 24 h, replicate number 1
  Growth Rate: -0.22
[2]; 24 h, replicate number 2
  Growth Rate: -0.46
[3]; 6 h, replicate number 1
  Growth Rate: -0.54
[3]; 6 h, replicate number 2
  Growth Rate: -0.45
[3]; 12 h, replicate number 1
  Growth Rate: -0.39
[3]; 12 h, replicate number 2
  Growth Rate: -0.32
[3]; 18 h, replicate number 1
  Growth Rate: -0.32
[3]; 18 h, replicate number 2
  Growth Rate: -0.35
[3]; 24 h, replicate number 1
  Growth Rate: -0.25
[3]; 24 h, replicate number 2
  Growth Rate: -0.29

## CN(C)C/C=C/C(=O)Nc1cc2c(Nc3ccc(F)c(Cl)c3)ncnc2cc1OC[C@@H]1CCCO1
[1]; 0 h, replicate number 2
  Growth Rate: 0.7
[1]; 6 h, replicate number 1
  Growth Rate: -0.2
[1]; 6 h, replicate number 2
  Growth Rate: -0.14
[1]; 12 h, replicate number 1
  Growth Rate: -0.23
[1]; 12 h, replicate number 2
  Growth Rate: -0.07
[1]; 18 h, replicate number 1
  Growth Rate: -0.23
[1]; 18 h, replicate number 2
  Growth Rate: -0.08
[1]; 24 h, replicate number 1
  Growth Rate: -0.17
[1]; 24 h, replicate number 2
  Growth Rate: -0.19
[2]; 0 h, replicate number 2
  Growth Rate: 0.77
[2]; 6 h, replicate number 1
  Growth Rate: -0.42
[2]; 6 h, replicate number 2
  Growth Rate: -0.39
[2]; 12 h, replicate number 1
  Growth Rate: -0.37
[2]; 12 h, replicate number 2
  Growth Rate: -0.36
[2]; 18 h, replicate number 1
  Growth Rate: -0.32
[2]; 18 h, replicate number 2
  Growth Rate: -0.29
[2]; 24 h, replicate number 1
  Growth Rate: -0.26
[2]; 24 h, replicate number 2
  Growth Rate: -0.29
[3]; 6 h, replicate number 1
  Growth Rate: -0.57
[3]; 6 h, replicate number 2
  Growth Rate: -0.55
[3]; 12 h, replicate number 1
  Growth Rate: -0.36
[3]; 12 h, replicate number 2
  Growth Rate: -0.34
[3]; 18 h, replicate number 1
  Growth Rate: -0.27
[3]; 18 h, replicate number 2
  Growth Rate: -0.29
[3]; 24 h, replicate number 1
  Growth Rate: -0.2
[3]; 24 h, replicate number 2
  Growth Rate: -0.22

## COC(=O)c1ccc2c(c1)NC(=O)/C2=C(\Nc1ccc(-c2nccn2C)cc1)c1ccccc1
[1]; 0 h, replicate number 1
  Growth Rate: -1
[1]; 6 h, replicate number 1
  Growth Rate: 0.57
[1]; 6 h, replicate number 2
  Growth Rate: 0.77
[1]; 12 h, replicate number 1
  Growth Rate: 0.53
[1]; 12 h, replicate number 2
  Growth Rate: 0.61
[1]; 18 h, replicate number 1
  Growth Rate: 0.46
[1]; 18 h, replicate number 2
  Growth Rate: 0.62
[1]; 24 h, replicate number 1
  Growth Rate: -0.6
[1]; 24 h, replicate number 2
  Growth Rate: 0.46
[2]; 0 h, replicate number 1
  Growth Rate: -1
[3]; 6 h, replicate number 1
  Growth Rate: -0.53
[3]; 6 h, replicate number 2
  Growth Rate: -0.73
[3]; 12 h, replicate number 1
  Growth Rate: -0.37
[3]; 12 h, replicate number 2
  Growth Rate: -0.51
[3]; 18 h, replicate number 1
  Growth Rate: -0.26
[3]; 18 h, replicate number 2
  Growth Rate: -0.37
[3]; 24 h, replicate number 1
  Growth Rate: -0.09
[3]; 24 h, replicate number 2
  Growth Rate: -0.27

## O=C(Nc1ccc(Cl)c(-c2ccccn2)c1)c1cccc(COc2ccc(Br)cc2CNCCO)c1.O=CO
[1]; 6 h, replicate number 1
  Growth Rate: 0.38
[1]; 6 h, replicate number 2
  Growth Rate: 0.78
[1]; 12 h, replicate number 1
  Growth Rate: 0.61
[1]; 12 h, replicate number 2
  Growth Rate: 0.6
[1]; 18 h, replicate number 1
  Growth Rate: 0.3
[1]; 18 h, replicate number 2
  Growth Rate: 0.36
[1]; 24 h, replicate number 1
  Growth Rate: 0.53
[1]; 24 h, replicate number 2
  Growth Rate: 0.33
[2]; 0 h, replicate number 1
  Growth Rate: -0.98
[2]; 0 h, replicate number 2
  Growth Rate: 0.59
[2]; 6 h, replicate number 2
  Growth Rate: 0.09
[2]; 12 h, replicate number 1
  Growth Rate: 0.51
[2]; 12 h, replicate number 2
  Growth Rate: -0.14
[2]; 18 h, replicate number 1
  Growth Rate: 0.29
[2]; 18 h, replicate number 2
  Growth Rate: -0.28
[2]; 24 h, replicate number 1
  Growth Rate: 0.25
[2]; 24 h, replicate number 2
  Growth Rate: -0.36
[3]; 6 h, replicate number 1
  Growth Rate: -0.57
[3]; 6 h, replicate number 2
  Growth Rate: -0.56
[3]; 12 h, replicate number 1
  Growth Rate: -0.44
[3]; 12 h, replicate number 2
  Growth Rate: -0.32
[3]; 18 h, replicate number 1
  Growth Rate: -0.3
[3]; 18 h, replicate number 2
  Growth Rate: -0.2
[3]; 24 h, replicate number 1
  Growth Rate: -0.2
[3]; 24 h, replicate number 2
  Growth Rate: -0.07

## CN1CCN(C(=O)Cc2ccc(N/C(=C3\C(=O)Nc4cc(Cl)ccc43)c3ccccc3)cc2)CC1
[1]; 6 h, replicate number 2
  Growth Rate: 0.9
[1]; 12 h, replicate number 2
  Growth Rate: 0.86
[1]; 18 h, replicate number 2
  Growth Rate: 0.7
[1]; 24 h, replicate number 2
  Growth Rate: 0.58
[2]; 0 h, replicate number 2
  Growth Rate: 0.06
[2]; 6 h, replicate number 1
  Growth Rate: 0.12
[2]; 6 h, replicate number 2
  Growth Rate: -0.1
[2]; 12 h, replicate number 1
  Growth Rate: 0.24
[2]; 12 h, replicate number 2
  Growth Rate: 0.01
[2]; 18 h, replicate number 1
  Growth Rate: 0.44
[2]; 18 h, replicate number 2
  Growth Rate: 0.21
[2]; 24 h, replicate number 1
  Growth Rate: 0.48
[2]; 24 h, replicate number 2
  Growth Rate: 0.28
[3]; 6 h, replicate number 1
  Growth Rate: 0.26
[3]; 6 h, replicate number 2
  Growth Rate: 0.83
[3]; 12 h, replicate number 1
  Growth Rate: 0.71
[3]; 12 h, replicate number 2
  Growth Rate: 0.92
[3]; 18 h, replicate number 1
  Growth Rate: 0.84
[3]; 18 h, replicate number 2
  Growth Rate: 0.82
[3]; 24 h, replicate number 1
  Growth Rate: 0.8
[3]; 24 h, replicate number 2
  Growth Rate: 0.73

## CC(=O)N(CCN(C)C)c1ccc(N/C(=C2\C(=O)Nc3cc(Cl)ccc32)c2ccccc2)cn1
[1]; 6 h, replicate number 1
  Growth Rate: -0.35
[1]; 6 h, replicate number 2
  Growth Rate: 0.34
[1]; 12 h, replicate number 1
  Growth Rate: 0.03
[1]; 12 h, replicate number 2
  Growth Rate: 0.23
[1]; 18 h, replicate number 1
  Growth Rate: 0.02
[1]; 18 h, replicate number 2
  Growth Rate: 0.1
[1]; 24 h, replicate number 1
  Growth Rate: -0.14
[1]; 24 h, replicate number 2
  Growth Rate: -0.13
[2]; 0 h, replicate number 2
  Growth Rate: -1
[2]; 6 h, replicate number 1
  Growth Rate: -0.62
[2]; 6 h, replicate number 2
  Growth Rate: -0.8
[2]; 12 h, replicate number 1
  Growth Rate: -0.65
[2]; 12 h, replicate number 2
  Growth Rate: -0.8
[2]; 18 h, replicate number 1
  Growth Rate: -0.63
[2]; 18 h, replicate number 2
  Growth Rate: -0.76
[2]; 24 h, replicate number 1
  Growth Rate: -0.58
[2]; 24 h, replicate number 2
  Growth Rate: -0.72
[3]; 6 h, replicate number 1
  Growth Rate: -0.78
[3]; 6 h, replicate number 2
  Growth Rate: -0.92
[3]; 12 h, replicate number 1
  Growth Rate: -0.58
[3]; 12 h, replicate number 2
  Growth Rate: -0.71
[3]; 18 h, replicate number 1
  Growth Rate: -0.45
[3]; 18 h, replicate number 2
  Growth Rate: -0.55
[3]; 24 h, replicate number 1
  Growth Rate: -0.37
[3]; 24 h, replicate number 2
  Growth Rate: -0.42
